Measured values published in patent US20210379214A1, “Phospholipid-Free Small Unilamellar Vesicles (PFSUVS) for Drug Delivery” (The University of British Columbia, priority 2018, published 2021).
Converted amounts (≈) assume the structure as drawn.

Tests used:
[1] = test system: EMT6 murine breast cancer cells; assay: In vitro cytotoxicity (MTT assay); assay type: cell-based
Experimental: (§1) EMT6 (murine breast tumor) and the resistant variant, EMT6/AR1 cells overexpressing P-glycoprotein were purchased from the National Cancer Institute (Bethesda, Md.). EMT6 cells were cultured in DMEM medium with 10% FBS, penicillin (100 U/ml) and streptomycin (100 μg/ml) at 37° C. with 5% CO2.
EMT6 cells were seeded on a 96-well plate (1000 cells/well). Wells with medium only were used as blank. […] Two days later, 5 μl of MTT solution (5 mg/ml) was added to each well, followed by 4-h incubation. The medium was removed and 100 μl DMSO was added into each well, followed by incubation at room temperature for 15 min. Absorbance at 540 nm in each well was then measured by a plate reader. The cell viability was calculated as (Abs−Abblank)/(Ab100−Abblank)×100%, where Abs is the Absorbance540 nm for the experimental group, Abblank is the Absorbance540 nm of sample without cells and Ab100 is the Absorbance540 nm of sample without treatment.

EMT6 cells [2] = assay: Cellular uptake of DOX by confocal laser scanning microscopy; assay type: cell-based, murine; details: for Mean Fluorescence Intensity: 5 μg DOX/ml
Experimental: as §1
Cellular uptake of DOX was imaged by confocal laser scanning microscopy (CLSM). EMT6 cells were seeded on a cover slip placed in a 24-well plate (1×10^5 cell/well) for 24 h prior to the study. […] The medium was removed and the cells were washed with PBS twice before fixation with 10% of formaldehyde at room temperature for 20 min. The cover slip was then washed for another 2 times with PBS and mount on a glass slide with fluorescence shield containing DAPI. The cells were imaged under a Zeiss™ confocal microscope (LSM 700™) and the image was analyzed using the CellProfiler™ (Version 3.0) software.

EMT6 cells [3] = assay: Cellular uptake in the presence of apolipoprotein; assay type: cell-based, murine; details: 4 hours, apolipoprotein 5, 20, 100 μg/ml
Experimental: EMT6 cells were seeded in 12 wells on cover slip over night to be confluent. […] After treatment, the cover slips were fixed with 10% and were then mounted on slide with a DAPI contained fluorescence shield. The slides were imaged under a confocal microscopy. Doxorubicin signal in those images were then quantified by Cellprofiler™.

COc1cccc2c1C(=O)c1c(O)c3c(c(O)c1C2=O)C[C@@](O)(C(=O)CO)C[C@@H]3O[C@H]1C[C@H](N)[C@H](O)[C@H](C)O1 [DOX, doxorubicin]
in vitro potency, fold more effective than PFSUVs-dox [1]: 4 fold | IC50 ([1]; MTT, curve fitting): 0.025 µg/mL (≈ 0.046 µM) | change of DOX cellular uptake in the presence of serum versus serum free (EMT6 cells [2]; EMT6 cells, 4 hr): did not significantly change | Mean Fluorescence Intensity (EMT6 cells [2]; EMT6 cells, 4 hr, 10% Serum): 0.247 ± 0.021 | Mean Fluorescence Intensity (EMT6 cells [2]; EMT6 cells, 4 hr, Without Serum): 0.258 ± 0.014 | increased cellular uptake relative to PFSUVs-DOX and PLD (EMT6 cells [2]; absence of serum): ~15 fold | effect of increasing concentrations of apolipoproteins on internalization (EMT6 cells [3]): no influence
